Test results from ChEMBL document CHEMBL1201862, “PubChem BioAssay data set” (2004).
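1) Cells in 96-well plates. 2) Compound, 48 h, 5 concentrations. 3) Linear interpolation between surrounding doses. 4) Unreached endpoint = highest concentration. The concentration for 50% growth inhibition is given as GI50.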 The source made the active and inactive calls. Rule as the data show it: active = GI50 up to about 1.1 µM and inactive = higher.

Columns and labels:
Assay in all cases: DTP human tumour cell line panel, 48 h
[1] = test system: 786-0
[2] = test system: A498
[3] = test system: A549
[4] = test system: ACHN
[5] = test system: CAKI-1
[6] = test system: CCRF-CEM
[7] = test system: COLO 205
[8] = test system: DLD-1
[9] = test system: DMS-114
[10] = test system: DMS-273
[11] = test system: EKVX
[12] = test system: HCC 2998
[13] = test system: HCT-116
[14] = test system: HCT-15
[15] = test system: HL-60
[16] = test system: HOP-18
[17] = test system: HOP-62
[18] = test system: HT-29
[19] = test system: IGROV-1
[20] = test system: K562
[21] = test system: KM-20L2
[22] = test system: KM12
[23] = test system: LOX IMVI
[24] = test system: LXFL 529
[25] = test system: M14
[26] = test system: MOLT-4
[27] = test system: Malme-3M
[28] = test system: NCI-H226
[29] = test system: NCI-H23
[30] = test system: NCI-H460
[31] = test system: NCI-H522
[32] = test system: OVCAR-3
[33] = test system: OVCAR-4
[34] = test system: OVCAR-5
[35] = test system: OVCAR-8
[36] = test system: RPMI-8226
[37] = test system: RXF 393
[38] = test system: SF-268
[39] = test system: SF-295
[40] = test system: SK-MEL-28
[41] = test system: SK-MEL-2
[42] = test system: SK-MEL-5
[43] = test system: SK-OV-3
[44] = test system: SN12C
[45] = test system: SNB-19
[46] = test system: SNB-75
[47] = test system: SNB-78
[48] = test system: SR
[49] = test system: SW-620
[50] = test system: TK-10
[51] = test system: U-251
[52] = test system: UACC-257
[53] = test system: UACC-62
[54] = test system: UO-31

`O=C1C(=O)C2(CC1S(=O)(=O)c1ccccc1)c1ccccc1-c1ccccc12` (centres undefined) was tested, and the GI50 [1] was 26.6 µM (inactive), the GI50 [2] was 19.1 µM (inactive) and the GI50 [3] was 24.7 µM (inactive). For the same molecule, the GI50 [4] was 28.6 µM (inactive), the GI50 [5] was 29 µM (inactive) and the GI50 [6] was 24.7 µM (inactive). The GI50 [7] was 12.7 µM (inactive), the GI50 [8] was 24.8 µM (inactive) and the GI50 [9] was 22 µM (inactive). The GI50 [10] was 19.5 µM (inactive), the GI50 [11] was 28.8 µM (inactive) and the GI50 [12] was 14.7 µM (inactive). The GI50 [13] was 17.3 µM (inactive), the GI50 [14] was 16.7 µM and the GI50 [15] was 27.9 µM (inactive). The GI50 [16] was > 10 µM (inactive), the GI50 [17] was 21.1 µM (inactive) and the GI50 [18] was 27 µM (inactive). The GI50 [19] was 23.1 µM (inactive), the GI50 [20] was 27.6 µM (inactive) and the GI50 [21] was 44 µM (inactive). The GI50 [22] was 19.2 µM (inactive), the GI50 [23] was 18.5 µM (inactive) and the GI50 [24] was 16.3 µM (inactive). The GI50 [25] was 13.9 µM (inactive), the GI50 [26] was 20.4 µM (inactive) and the GI50 [27] was > 10 µM (inactive). For the same molecule, the GI50 [28] was 37.4 µM (inactive), the GI50 [29] was 15.5 µM (inactive) and the GI50 [30] was 18.6 µM (inactive). For the same molecule, the GI50 [31] was 22.5 µM (inactive), the GI50 [32] was > 10 µM (inactive) and the GI50 [33] was 48.9 µM (inactive). For the same molecule, the GI50 [34] was 23 µM (inactive), the GI50 [35] was 17.9 µM (inactive) and the GI50 [36] was 26.4 µM (inactive). The GI50 [37] was 18.7 µM (inactive), the GI50 [38] was 27.4 µM (inactive) and the GI50 [39] was 21.3 µM (inactive). The GI50 [40] was 19.7 µM (inactive), the GI50 [41] was 18.1 µM (inactive) and the GI50 [42] was 14.6 µM (inactive). For the same molecule, the GI50 [43] was 38.9 µM (inactive), the GI50 [44] was 28.8 µM (inactive) and the GI50 [45] was 20.6 µM (inactive). For the same molecule, the GI50 [46] was 37.3 µM (inactive), the GI50 [47] was 17.5 µM (inactive) and the GI50 [48] was 24 µM (inactive). For the same molecule, the GI50 [49] was 34.6 µM (inactive), the GI50 [50] was 25.8 µM (inactive) and the GI50 [51] was 18.6 µM (inactive). For the same molecule, the GI50 [52] was 17.8 µM (inactive), the GI50 [53] was 16.6 µM (inactive) and the GI50 [54] was 19.7 µM (inactive).
